Test results reported in the NIST ThermoML archive (doi:10.1021/je100100n).
Numbers after ± are expanded uncertainties.

Assay: xn = mol fraction of the nth substance listed
Conditions: 101 kPa, Liquid

CC(C)CO [2-methyl-1-propanol] + CCOC(=O)CC(=O)OCC
x2 = 0
Conditions | mass density [kg/m3]
288.15 K | 805.6 ± 0.46
298.15 K | 797.916 ± 0.47
313.15 K | 786.069 ± 0.49
328.15 K | 773.692 ± 0.51

CCCCO [butan-1-ol] + CCOC(=O)CC(=O)OCC
x2 = 0
Conditions | mass density [kg/m3]
288.15 K | 813.77 ± 0.45
298.15 K | 806.137 ± 0.46
313.15 K | 794.488 ± 0.48
328.15 K | 782.477 ± 0.49

CCOC(=O)CC(=O)OCC [diethyl 1,3-propanedioate] + CC(C)CO
mass density [kg/m3]
Conditions | 288.15 K | 298.15 K | 313.15 K | 328.15 K
x1 = 0.1 | 843.381 ± 0.41 | 835.034 ± 0.42 | 822.221 ± 0.44 | 808.976 ± 0.46
x1 = 0.2 | 877.394 ± 0.36 | 868.517 ± 0.37 | 854.953 ± 0.39 | 841.015 ± 0.41
x1 = 0.3 | 908.051 ± 0.31 | 898.746 ± 0.33 | 884.583 ± 0.35 | 870.102 ± 0.37
x1 = 0.35 | 922.305 ± 0.29 | 912.816 ± 0.31 | 898.402 ± 0.33 | 885.344 ± 0.35
x1 = 0.3999 | 935.772 ± 0.27 | 926.126 ± 0.29 | 911.47 ± 0.31 | 896.55 ± 0.33
x1 = 0.4495 | 948.602 ± 0.25 | 938.806 ± 0.27 | 923.966 ± 0.29 | 908.867 ± 0.31
x1 = 0.5001 | 961.044 ± 0.24 | 951.116 ± 0.25 | 936.085 ± 0.27 | 920.835 ± 0.29
x1 = 0.6001 | 984.156 ± 0.2 | 973.999 ± 0.22 | 958.66 ± 0.24 | 943.14 ± 0.26
x1 = 0.6999 | 1005.33 ± 0.19 | 995.001 ± 0.19 | 979.414 ± 0.21 | 963.679 ± 0.23
x1 = 0.8003 | 1025.06 ± 0.22 | 1014.57 ± 0.2 | 998.792 ± 0.18 | 982.885 ± 0.2
x1 = 0.9 | 1043.28 ± 0.25 | 1032.67 ± 0.23 | 1016.71 ± 0.2 | 1000.67 ± 0.18
x1 = 1 | 1060.33 ± 0.27 | 1049.6 ± 0.26 | 1033.5 ± 0.23 | 1017.34 ± 0.2

CCOC(=O)CC(=O)OCC [diethyl 1,3-propanedioate] + CC(C)O
mass density [kg/m3]
Conditions | 288.15 K | 298.15 K | 313.15 K | 328.15 K
x1 = 0.1001 | 836.917 ± 0.42 | 827.809 ± 0.44 | 813.707 ± 0.46 | 798.938 ± 0.48
x1 = 0.2 | 877.015 ± 0.36 | 867.404 ± 0.38 | 852.617 ± 0.4 | 837.294 ± 0.42
x1 = 0.3 | 911.283 ± 0.31 | 901.308 ± 0.33 | 886.063 ± 0.35 | 870.365 ± 0.37
x1 = 0.3501 | 926.715 ± 0.29 | 916.6 ± 0.3 | 901.155 ± 0.32 | 885.344 ± 0.35
x1 = 0.4 | 940.924 ± 0.27 | 930.696 ± 0.28 | 915.119 ± 0.3 | 899.194 ± 0.33
x1 = 0.455 | 955.561 ± 0.24 | 945.23 ± 0.26 | 929.523 ± 0.28 | 913.507 ± 0.3
x1 = 0.4999 | 966.784 ± 0.23 | 956.373 ± 0.24 | 940.573 ± 0.27 | 924.508 ± 0.29
x1 = 0.5501 | 978.638 ± 0.21 | 968.162 ± 0.23 | 952.282 ± 0.25 | 936.171 ± 0.27
x1 = 0.5999 | 989.637 ± 0.19 | 979.111 ± 0.21 | 963.18 ± 0.23 | 947.033 ± 0.26
x1 = 0.6499 | 1000.13 ± 0.18 | 989.567 ± 0.19 | 973.566 ± 0.22 | 957.417 ± 0.24
x1 = 0.7001 | 1010.03 ± 0.19 | 999.417 ± 0.18 | 983.39 ± 0.2 | 967.228 ± 0.23
x1 = 0.8 | 1028.36 ± 0.22 | 1017.69 ± 0.21 | 1001.63 ± 0.18 | 985.453 ± 0.2
x1 = 0.8995 | 1044.94 ± 0.25 | 1034.26 ± 0.23 | 1018.18 ± 0.21 | 1002.01 ± 0.18
x1 = 1 | 1060.33 ± 0.27 | 1049.6 ± 0.26 | 1033.5 ± 0.23 | 1017.34 ± 0.2

CCOC(=O)CC(=O)OCC [diethyl 1,3-propanedioate] + CCCCCO
mass density [kg/m3]
Conditions | 288.15 K | 298.15 K | 313.15 K | 328.15 K
x1 = 0.0999 | 849.562 ± 0.4 | 841.661 ± 0.41 | 829.624 ± 0.43 | 817.296 ± 0.45
x1 = 0.1998 | 878.757 ± 0.36 | 870.343 ± 0.37 | 857.553 ± 0.39 | 844.519 ± 0.41
x1 = 0.2999 | 906.036 ± 0.32 | 897.187 ± 0.33 | 883.774 ± 0.35 | 870.127 ± 0.37
x1 = 0.3498 | 919.092 ± 0.3 | 910.054 ± 0.31 | 896.347 ± 0.33 | 882.426 ± 0.35
x1 = 0.3997 | 931.801 ± 0.28 | 922.576 ± 0.29 | 908.607 ± 0.31 | 894.428 ± 0.33
x1 = 0.4499 | 944.204 ± 0.26 | 934.797 ± 0.27 | 920.565 ± 0.29 | 906.141 ± 0.32
x1 = 0.4999 | 956.145 ± 0.24 | 946.568 ± 0.26 | 932.101 ± 0.28 | 917.475 ± 0.3
x1 = 0.5501 | 967.903 ± 0.23 | 958.185 ± 0.24 | 943.506 ± 0.26 | 928.648 ± 0.28
x1 = 0.599 | 978.962 ± 0.21 | 969.118 ± 0.22 | 954.233 ± 0.24 | 939.199 ± 0.27
x1 = 0.65 | 990.137 ± 0.19 | 980.151 ± 0.21 | 965.074 ± 0.23 | 949.864 ± 0.25
x1 = 0.6997 | 1000.81 ± 0.18 | 990.684 ± 0.19 | 975.442 ± 0.21 | 960.07 ± 0.24
x1 = 0.7997 | 1021.52 ± 0.21 | 1011.18 ± 0.2 | 995.601 ± 0.18 | 979.945 ± 0.21
x1 = 0.9 | 1041.37 ± 0.25 | 1030.84 ± 0.23 | 1015 ± 0.2 | 999.065 ± 0.18
x1 = 1 | 1060.33 ± 0.27 | 1049.6 ± 0.26 | 1033.5 ± 0.23 | 1017.34 ± 0.2

CCOC(=O)CC(=O)OCC [diethyl 1,3-propanedioate] + CCCCO
mass density [kg/m3]
Conditions | 288.15 K | 298.15 K | 313.15 K | 328.15 K
x1 = 0.1001 | 850.611 ± 0.4 | 842.336 ± 0.41 | 829.747 ± 0.43 | 816.824 ± 0.45
x1 = 0.2002 | 883.667 ± 0.35 | 874.886 ± 0.36 | 861.524 ± 0.38 | 847.882 ± 0.4
x1 = 0.3001 | 913.38 ± 0.31 | 904.169 ± 0.32 | 890.202 ± 0.34 | 875.956 ± 0.36
x1 = 0.35 | 927.207 ± 0.29 | 917.818 ± 0.3 | 903.569 ± 0.32 | 889.092 ± 0.34
x1 = 0.4 | 940.225 ± 0.27 | 930.667 ± 0.28 | 916.189 ± 0.3 | 901.465 ± 0.32
x1 = 0.45 | 952.775 ± 0.25 | 943.06 ± 0.26 | 928.349 ± 0.28 | 913.434 ± 0.3
x1 = 0.5 | 964.641 ± 0.23 | 954.786 ± 0.24 | 939.89 ± 0.27 | 924.793 ± 0.29
x1 = 0.5501 | 976.114 ± 0.21 | 966.141 ± 0.23 | 951.051 ± 0.25 | 935.788 ± 0.27
x1 = 0.5999 | 986.952 ± 0.2 | 976.853 ± 0.21 | 961.602 ± 0.23 | 946.182 ± 0.26
x1 = 0.7 | 1007.44 ± 0.19 | 997.139 ± 0.18 | 981.612 ± 0.2 | 965.954 ± 0.23
x1 = 0.7998 | 1026.31 ± 0.22 | 1015.86 ± 0.2 | 1000.1 ± 0.18 | 984.244 ± 0.2
x1 = 0.9001 | 1043.95 ± 0.25 | 1033.35 ± 0.23 | 1017.41 ± 0.21 | 1001.38 ± 0.18
x1 = 1 | 1060.33 ± 0.27 | 1049.6 ± 0.26 | 1033.5 ± 0.23 | 1017.34 ± 0.2

CCOC(=O)CC(=O)OCC [diethyl 1,3-propanedioate] + CCCO
mass density [kg/m3]
Conditions | 288.15 K | 298.15 K | 313.15 K | 328.15 K
x1 = 0.1001 | 854.156 ± 0.4 | 845.431 ± 0.41 | 832.128 ± 0.43 | 818.439 ± 0.45
x1 = 0.2 | 891.858 ± 0.34 | 882.638 ± 0.35 | 868.577 ± 0.37 | 854.173 ± 0.39
x1 = 0.2999 | 923.874 ± 0.29 | 914.254 ± 0.31 | 899.629 ± 0.33 | 884.69 ± 0.35
x1 = 0.3501 | 938.229 ± 0.27 | 928.438 ± 0.28 | 913.567 ± 0.3 | 898.431 ± 0.33
x1 = 0.4001 | 951.433 ± 0.25 | 941.51 ± 0.26 | 926.45 ± 0.29 | 911.123 ± 0.31
x1 = 0.4499 | 963.765 ± 0.23 | 953.71 ± 0.25 | 938.475 ± 0.27 | 922.986 ± 0.29
x1 = 0.4999 | 975.313 ± 0.21 | 965.148 ± 0.23 | 949.737 ± 0.25 | 934.134 ± 0.27
x1 = 0.5446 | 985.016 ± 0.2 | 974.758 ± 0.21 | 959.257 ± 0.24 | 943.524 ± 0.26
x1 = 0.5997 | 996.235 ± 0.18 | 985.888 ± 0.2 | 970.245 ± 0.22 | 954.437 ± 0.24
x1 = 0.7003 | 1014.96 ± 0.2 | 1004.46 ± 0.18 | 988.638 ± 0.19 | 972.67 ± 0.22
x1 = 0.7998 | 1031.53 ± 0.23 | 1020.94 ± 0.21 | 1004.99 ± 0.18 | 988.923 ± 0.19
x1 = 0.8997 | 1046.55 ± 0.25 | 1035.87 ± 0.23 | 1019.84 ± 0.21 | 1003.72 ± 0.18
x1 = 1 | 1060.33 ± 0.27 | 1049.6 ± 0.26 | 1033.5 ± 0.23 | 1017.34 ± 0.2
